The source of these data is patent publication US10106542B2, “Substituted 6,7-dihydropyrazolo[1,5-a]pyrazines as negative allosteric modulators of mGluR2 receptors” (Janssen Pharmaceutica NV, priority 2013, dated 2018).

One assay has as its target T1, human mGlu2 receptor (Homo sapiens, UniProt Q14416).
T1 construct: expressed in transfected cells; host or cells: CHO cells (membrane preparation)
Briefly: [35S]GTPγS binding assay (mGluR2 negative allosteric modulation). The assay is classed as biochemical. A digest of the protocol: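 Membranes from butyrate-stimulated CHO cells expressing human mGlu2; 7 μg protein in HEPES pH 7.4, 100 mM NaCl, 3 mM MgCl2, 10 μM GDP, 10 μg/ml saponin. Compound tested against EC80-equivalent glutamate; 0.1 nM [35S]GTPγS, 30 min, 30 °C; filtration, scintillation counting. Data as % of control glutamate response.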
(Binding of GTPγS marks nucleotide exchange on a G protein.)

A further assay relates to rats. Briefly: Reversal of the effect of the mGluR2 PAM JNJ-42153605 on scopolamine-induced hyperlocomotion. In kind it is in vivo. The following applies: Rattus norvegicus, 1 h, test compound 60 min before recording, criterion total distance >1500 cm. Summed up:
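Rats pretreated with test compound or vehicle 60 min before recording, given JNJ-42153605 (20 mg/kg, i.v.) at 30 min prior, then scopolamine (0.16 mg/kg, i.v.) immediately before. Total distance travelled over the first 30 min was video-tracked. All-or-none scoring: reversal >1500 cm, normalization >4400 cm.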

T1 sequence (Q14416 19-872): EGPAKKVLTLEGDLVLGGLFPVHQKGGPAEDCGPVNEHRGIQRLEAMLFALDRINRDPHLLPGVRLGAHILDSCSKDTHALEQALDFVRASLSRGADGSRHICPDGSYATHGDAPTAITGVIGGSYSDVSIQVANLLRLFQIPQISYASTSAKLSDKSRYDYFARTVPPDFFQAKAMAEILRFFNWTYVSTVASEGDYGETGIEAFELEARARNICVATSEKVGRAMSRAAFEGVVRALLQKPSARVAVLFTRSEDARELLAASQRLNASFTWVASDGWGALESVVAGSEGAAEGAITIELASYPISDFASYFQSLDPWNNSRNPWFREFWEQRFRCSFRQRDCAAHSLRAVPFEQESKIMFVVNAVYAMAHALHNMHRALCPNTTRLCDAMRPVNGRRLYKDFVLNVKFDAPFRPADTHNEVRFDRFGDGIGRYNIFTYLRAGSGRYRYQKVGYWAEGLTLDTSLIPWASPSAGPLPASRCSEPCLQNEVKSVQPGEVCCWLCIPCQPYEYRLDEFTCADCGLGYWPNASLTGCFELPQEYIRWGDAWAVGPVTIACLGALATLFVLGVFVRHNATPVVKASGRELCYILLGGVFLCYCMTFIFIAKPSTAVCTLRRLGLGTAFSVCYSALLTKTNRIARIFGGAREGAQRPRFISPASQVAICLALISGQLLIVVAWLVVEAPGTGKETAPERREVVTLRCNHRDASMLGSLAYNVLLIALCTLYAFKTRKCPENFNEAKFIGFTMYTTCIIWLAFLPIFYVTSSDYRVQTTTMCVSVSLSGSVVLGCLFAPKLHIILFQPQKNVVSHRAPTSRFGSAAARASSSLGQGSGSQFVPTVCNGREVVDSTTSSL

As to `Cc1cc(-c2cnn3c2C(=O)N(c2ccc(C(F)(F)F)cc2)C[C@@H]3C)ccn1` [compound 1, (7S)-7-Methyl-3-(2-methylpyridin-4-yl)-5-[4-(trifluoromethyl)phenyl]-6,7-dihydropyrazolo[1,5-a]pyrazin-4(5H)-one], the “GTPγS - hmGluR2 anGT pIC50” value on human mGlu2 receptor (membranes from CHO cells transfected with human mGlu2 receptor, glutamate 60 μM, pIC50 = −log IC50 (M)) turned out to be 8.05. At human mGlu2 receptor (relative maximal effect: maximal % inhibition relative to the control glutamate response, read-out: GTPγS - hmGluR2 anGT Emax), the Emax (in general, the maximal effect, on the per cent scale that the assay sets) was found to be 106%. The ED50 (in general, the dose at which the effect has come halfway, by size or by number of responders) stood at 0.45 mg/kg with rats (Route PO) and 3.54 mg/kg in the assay with rats (Route SC).
